Assay results reported in patent EP0406992A2, “New non-ionic carboxamide contrast agent” (SCHERING AKTIENGESELLSCHAFT, priority 1989, dated 1991).
Where two headings read alike, the source gives them in different places. Marks after values point to notes of the source that are not given here.

How the values were obtained:
männl. Ratte 80-100 g = details: male rat 80-100 g, approximate range
männl. Maus 16-20 g = details: male mouse 16-20 g, approximate range
[1] = Osmolality of contrast agent solutions; assay type: physicochemical; details: for Osmolalität von 300 mg I/ml Lösungen wäßrige Lösung: aqueous solution; for Osmolalität von 300 mg I/ml Lösungen pharmazeutisch formul. Lösung: pharmaceutically formulated solution
[2] = values marked * (Laut Literaturangabe); cited from earlier work
[3] = Viscosity of contrast agent solutions at 37 °C; assay type: physicochemical; details: for Viskosität von 300 mg I/ml bei 37 °C: pharmaceutically formulated solution, determined in applicant's laboratory

SMILES | Näherungsbereich i.v. LD₅₀ männl. Ratte 80-100 g (männl. Ratte 80-100 g) | Näherungsbereich i.v. LD₅₀ männl. Maus 16-20 g (männl. Maus 16-20 g) | Osmolalität von 300 mg I/ml Lösungen wäßrige Lösung [1] | Osmolalität von 300 mg I/ml Lösungen pharmazeutisch formul. Lösung [1] | Viskosität von 300 mg I/ml bei 37 °C [3] | other results
CC(=O)N(CC(O)CO)c1c(I)c(C(=O)NCC(O)CO)c(I)c(C(=O)NCC(O)CO)c1I (centres unmarked) [Iohexol] | 11,5-12,5 g I/kg | 16-17 g I/kg | – | – | – | –
C[C@H](O)C(=O)Nc1c(I)c(C(=O)NC(CO)CO)c(I)c(C(=O)NC(CO)CO)c1I [Iopamidol] | 12-13 g I/kg | 16-18 g I/kg | 671 mOsm | 704 mOsm | – | Viskosität von 300 mg I/ml bei 37 °C [2]: 4,7* cps
COCC(=O)Nc1c(I)c(C(=O)NCC(O)CO)c(I)c(C(=O)N(C)CC(O)CO)c1I (centres unmarked) [Iopromid] | 11-12 g I/kg | 14-16 g I/kg | 607 mOsm | 630 mOsm | – | Viskosität von 300 mg I/ml bei 37 °C [2]: 4,6* cps
CC(=O)N(CC(O)CO)c1c(I)c(C(=O)NCCO)c(I)c(C(=O)NCC(O)CO)c1I (centres unmarked) [Ioxilan, reference compound] | 12-13 g I/kg | 16-18 g I/kg | 560 mOsm | 588 mOsm | 4,7 cps | –
CC(=O)N(CCO)c1c(I)c(C(N)=O)c(I)c(C(=O)NC(CO)C(O)CO)c1I (stereo not drawn) [Verbindung 11, 5-{N-(2-Hydroxyethylacetamido)}-2,4,6-triiod-3-{N-(1,3,4-trihydroxy-threo-but-2-yl)}carbamoyl-Benzamid] | 15,5-17,5 g I/kg | 15,5-16,5 g I/kg | 300 mOsm | 326 mOsm | 4,2 cps | Osmolalität ([1]; injection solution 300 mg I/ml, CaNa2-EDTA 56 mg, Trinatriumcitrat 77 mg per 100 ml, pH 5,0 bis 6,0, autoclaved): 301 mOsm/kg; Osmolalität ([1]; injection solution 350 mg I/ml, CaNa2-EDTA 56 mg, Trinatriumcitrat 77 mg per 100 ml, pH 5,0 bis 6,0, autoclaved): 337 mOsm/kg; Osmolalität ([1]; injection solution 400 mg I/ml, CaNa2-EDTA 56 mg, Trinatriumcitrat 77 mg per 100 ml, pH 5,0 bis 6,0, autoclaved): 370 mOsm/kg; Viskosität bei 37 °C ([3]; injection solution 300 mg I/ml, CaNa2-EDTA 56 mg, Trinatriumcitrat 77 mg per 100 ml, pH 5,0 bis 6,0, 37 °C): 4,2 Centipoise; Viskosität bei 37 °C ([3]; injection solution 350 mg I/ml, CaNa2-EDTA 56 mg, Trinatriumcitrat 77 mg per 100 ml, pH 5,0 bis 6,0, 37 °C): 6,6 Centipoise; Viskosität bei 37 °C ([3]; injection solution 400 mg I/ml, CaNa2-EDTA 56 mg, Trinatriumcitrat 77 mg per 100 ml, pH 5,0 bis 6,0, 37 °C): 13,1 Centipoise
CC(=O)N(CC(O)CO)c1c(I)c(C(N)=O)c(I)c(C(=O)NCC(O)CO)c1I (centres unmarked) [Verbindung 19, 5-{N-(2,3-Dihydroxypropyl)acetamido}-2,4,6-triiod-3-{N-(2,3-dihydroxypropyl)}carbamoyl-Benzamid] | 13-14 g I/kg | 14-16 g I/kg | 365 mOsm | 390 mOsm | 4,1 cps | Osmolalität ([1]; injection solution 300 mg I/ml, CaNa2-EDTA 10 mg, Tris 121 mg per 100 ml, pH 7,0, autoclaved): 399 mOsm/kg; Osmolalität ([1]; injection solution 350 mg I/ml, CaNa2-EDTA 10 mg, Tris 121 mg per 100 ml, pH 7,0, autoclaved): 473 mOsm/kg; Osmolalität ([1]; injection solution 400 mg I/ml, CaNa2-EDTA 10 mg, Tris 121 mg per 100 ml, pH 7,0, autoclaved): 510 mOsm/kg; Viskosität bei 37 °C ([3]; injection solution 300 mg I/ml, CaNa2-EDTA 10 mg, Tris 121 mg per 100 ml, pH 7,0, 37 °C): 4,1 Centipoise; Viskosität bei 37 °C ([3]; injection solution 350 mg I/ml, CaNa2-EDTA 10 mg, Tris 121 mg per 100 ml, pH 7,0, 37 °C): 6,6 Centipoise; Viskosität bei 37 °C ([3]; injection solution 400 mg I/ml, CaNa2-EDTA 10 mg, Tris 121 mg per 100 ml, pH 7,0, 37 °C): 10,6 Centipoise
CN(C(=O)CO)c1c(I)c(C(N)=O)c(I)c(C(=O)NC(CO)C(O)CO)c1I (stereo not drawn) [Verbindung 41, 5-{N-(Methyl)-2-hydroxyacetamido}-2,4,6-triiod-3-{N-(1,3,4-trihydroxy-threo-but-2-yl)}-carbamoyl-Benzamid] | 15-17 g I/kg | 16-17,5 g I/kg | 314 mOsm | 322 mOsm | 3,5 cps | –
